US9187450B2, “Substituted pyridine compound” (Daiichi Sankyo Company, Limited, priority 2010, dated 2015)

Target: recombinant human CETP protein (Homo sapiens (Human), UniProt P11597)
Experiment: Test of CETP inhibition activity (in vitro, buffer-based)
Assay type: biochemical
Conditions: reconstituted HDL with [14C]-labeled cholesteryl ester, acceptor lipoprotein, 37° C.
Protocol: Test of CETP Inhibition Activity (In Vitro, Buffer-Based)
(1) Preparation of Reconstituted HDL
Cholesterol (1.125 μmol), phosphatidyl choline (4.5 μmol) and [^14C]-labeled cholesteryl ester (2.0 μCi; 40 μl) were taken in a glass test tube and well mixed with a vortex, and dried under a nitrogen gas current so that it formed a thin film. The obtained mixture was dissolved in ethanol (200 μl), which was designated as Solution A. A PBS solution [a mixed solution of Na2HPO4 (30 mM), KH2PO4 (8.8 mM), NaCl (60 mM) and EDTA (pH 7.4; 0.67 mM); 4 ml] was taken in a tube and the reaction solution was vigorously stirred with a vortex under a nitrogen current. The above-described Solution A was gently injected into this mixture with a syringe and the reaction solution was vigorously stirred with a vortex for 5 minutes under a nitrogen current. Sodium cholate ([…]; 0.38 ml) was added to the obtained mixture and the reaction solution was stirred for 2 minutes. ApoA-I protein (3 mg) was added to the obtained mixture and the reaction solution was stirred for 2 minutes. The obtained mixture was adjusted to 5 ml with the PBS solution and then dialyzed with the PBS solution. The obtained mixture was designated as the reconstituted HDL.
(2) Preparation of Acceptor Lipoprotein
NaBr was added to the plasma of a healthy person and the density of the mixture was adjusted to 1.019, and the mixture was subjected to density gradient centrifugation (40000 rpm, for 16 hours) to remove the fraction having a density of less than 1.019. NaBr was added to the obtained mixture and the density of the solution was adjusted to 1.063, and the solution was subjected to density gradient centrifugation (40000 rpm, 18 hours) to provide the fraction consisting of IDL (intermediate density lipoprotein) and LDL (1.019<density<1.063). The obtained fraction was dialyzed with the PBS solution. The obtained mixture was designated as the acceptor lipoprotein.
(3) Measurement of CETP Inhibition Activity
A recombinant human CETP protein (manufactured by Roar Biomedical Inc.; 4.5 ng), the acceptor lipoprotein described in (2) above (32.5 μg) and 5,5′-dithio-bis-(2-nitrobenzoic acid) (7 mM, 15 μl) were taken in a 96 well plate and the total amount of the mixture was adjusted to 48.5 μl with the PBS solution. The test compound [DMSO solution (concentration: 0.15, 0.5, 1.5, 5, 15, 50, 150 and 500 μM; 1.5 μl] was added to each well and the mixture was incubated in a thermostatic bath at 37° C. for 60 minutes. The reconstituted HDL (50 μl) described in (1) above was added to each well and the mixture was reacted in a thermostatic bath at 37° C. for 60 minutes. The 96 well plate was moved onto ice and a precipitation reagent [a mixed solution of magnesium chloride (60 mM) and 0.1% dextran sulfate [1/1 (v/v)]; 15 μl] was added to each well, and then the mixture was allowed to stand on ice for 15 minutes. The reaction solution (80 μl) in each well was moved to a filter plate and centrifuged at 1500 rpm for 1 minute, and the filtrate which passed through the filter was designated as the HDL fraction and the radioactivity thereof was measured with a scintillation counter. The percentage decrease in radioactivity in the case where the test compound was added in comparison with that in case where the test compound was not added was designated as the percentage CETP inhibition. The IC50 value was calculated from the percentage CETP inhibition.

Chain of recombinant human CETP protein (P11597 18-493): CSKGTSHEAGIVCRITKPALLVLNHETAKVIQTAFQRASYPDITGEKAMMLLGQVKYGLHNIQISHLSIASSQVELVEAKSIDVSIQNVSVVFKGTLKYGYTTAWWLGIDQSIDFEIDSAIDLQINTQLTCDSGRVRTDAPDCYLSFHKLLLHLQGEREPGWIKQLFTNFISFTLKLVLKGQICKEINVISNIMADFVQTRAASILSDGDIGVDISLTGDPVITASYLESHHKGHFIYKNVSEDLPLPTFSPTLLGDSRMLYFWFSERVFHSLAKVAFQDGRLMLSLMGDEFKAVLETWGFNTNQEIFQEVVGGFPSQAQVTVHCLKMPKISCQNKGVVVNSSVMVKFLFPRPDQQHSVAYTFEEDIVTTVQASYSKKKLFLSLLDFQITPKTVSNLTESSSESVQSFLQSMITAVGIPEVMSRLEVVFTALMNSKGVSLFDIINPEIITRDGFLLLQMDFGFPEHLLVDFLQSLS

Row | SMILES | IC50
1 | CC1(C)Cc2nc(C3CCN(c4ncc(N5CCC(O)CC5)cn4)CC3)c([C@@H](F)c3ccc(C(F)(F)F)cc3)c(C3CCC(F)(F)CC3)c2[C@@H](O)C1 (single isomer, unassigned) [Example 11, (−)-4-(4,4-Difluorocyclohexyl)-3-{fluoro[4-(trifluoromethyl)phenyl]methyl}-2-{1-[5-(4-hydroxypiperidin-1-yl)pyrimidin-2-yl]piperidin-4-yl}-7,7-dimethyl-5,6,7,8-tetrahydroquinolin-5-ol] | 46 nM
2 | CC1(C)Cc2nc(C3CCN(c4ncc(N5CCCCC5)cn4)CC3)c([C@@H](F)c3ccc(C(F)(F)F)cc3)c(C3CCC(F)(F)CC3)c2[C@@H](O)C1 (single isomer, unassigned) [Example 6, (−)-4-(4,4-Difluorocyclohexyl)-3-{fluoro[4-(trifluoromethyl)phenyl]methyl}-7,7-dimethyl-2-{1-[5-(piperidin-1-yl)pyrimidin-2-yl]piperidin-4-yl}-5,6,7,8-tetrahydroquinolin-5-ol] | 66 nM
3 | CC1(C)Cc2nc(C3CCN(c4ncc(N5CC[C@H](O)C5)cn4)CC3)c([C@@H](F)c3ccc(C(F)(F)F)cc3)c(C3CCC(F)(F)CC3)c2[C@@H](O)C1 (single isomer, unassigned) [Example 57] | 33 nM
4 | CN(CCO)Cc1cnc(N2CCC(c3nc4c(c(C5CCC(F)(F)CC5)c3[C@@H](F)c3ccc(C(F)(F)F)cc3)[C@@H](O)CC(C)(C)C4)CC2)nc1 (single isomer, unassigned) [Example 36, (−)-4-(4,4-difluorocyclohexyl)-3-{fluoro[4-(trifluoromethyl)phenyl]methyl}-2-{1-(5-{[(2-hydroxyethyl)(methyl)amino]methyl}pyrimidine-2-yl)piperidin-4-yl}-7,7-dimethyl-5,6,7,8-tetrahydroquinoline-5-ol] | 35 nM
5 | CC(C)(O)COc1cnc(N2CCC(c3nc4c(c(C5CCC(F)(F)CC5)c3[C@@H](F)c3ccc(C(F)(F)F)cc3)[C@@H](O)CC(C)(C)C4)CC2)nc1 (stereo in doubt) [Example 44, 4-(4,4-Difluorocyclohexyl)-3-{fluoro[4-(trifluoromethyl)phenyl]methyl}-2-{1-[5-(2-hydroxy-2-methylpropoxy)pyrimidin-2-yl]piperidin-4-yl}-7,7-dimethyl-5,6,7,8-tetrahydroquinolin-5-ol] | 21 nM
6 | CC1(C)Cc2nc(C3CCN(c4ncc(CCCC(F)(F)F)cn4)CC3)c([C@@H](F)c3ccc(C(F)(F)F)cc3)c(C3CCC(F)(F)CC3)c2[C@@H](O)C1 (single isomer, unassigned) [Example 33, 4-(4,4-Difluorocyclohexyl)-3-{fluoro[4-(trifluoromethyl)phenyl]methyl}-7,7-dimethyl-2-{1-[5-(4,4,4-trifluorobutyl)pyrimidin-2-yl]piperidin-4-yl}-5,6,7,8-tetrahydroquinolin-5-ol] | 48 nM
7 | COc1cnc(N2CCC(c3nc4c(c(C5CCC(F)(F)CC5)c3[C@@H](F)c3ccc(C(F)(F)F)cc3)[C@@H](O)CC(C)(C)C4)CC2)nc1 (single isomer, unassigned) [Example 3, (−)-4-(4,4-Difluorocyclohexyl)-3-{fluoro[4-(trifluoromethyl)phenyl]methyl}-2-[1-(5-methoxypyrimidin-2-yl)piperidin-4-yl]-7,7-dimethyl-5,6,7,8-tetrahydroquinolin-5-ol] | 51 nM
8 | CN(CCO)c1cnc(N2CCC(c3nc4c(c(C5CCC(F)(F)CC5)c3[C@@H](F)c3ccc(C(F)(F)F)cc3)[C@@H](O)CC(C)(C)C4)CC2)nc1 (single isomer, unassigned) [Example 56, 4-(4,4-Difluorocyclohexyl)-3-{fluoro[4-(trifluoromethyl)phenyl]methyl}-2-(1-{5-[(2-hydroxyethyl)(methyl)amino]pyrimidin-2-yl}piperidin-4-yl)-7,7-dimethyl-5,6,7,8-tetrahydroquinolin-5-ol] | 28 nM
